# Patent US6509355B1, “Treatment of disorders of the outer retina” (Alcon Laboratories, Inc., priority 1998, dated 2003)
# Assays:
# [1] = biological target: NR1A/NR2B subtype of the polyamine binding site of the NMDA receptor (Homo sapiens, UniProt Q05586+Q13224); conditions: cited from earlier work
# [2] = tested on: photo-oxidative induced retinopathy; experiment: Photo-oxidative induced retinopathy: 6-hour blue light exposure, ERG after 5-day recovery; conditions: rat, in vivo
# Description: Photic retinopathy results from excessive excitation of the retinal pigment epithelium and neuroretina by absorption of visible or near ultraviolet radiation. Lesion severity is dependent upon wavelength, irradiance, exposure duration, species, ocular pigmentation, and age. Damage may result from peroxidation of cellular membranes, inactivation of mitochondrial enzymes such as cytochrome oxidase, or increased intracellular calcium. Cellular damage resulting from photo-oxidative stress leads to cell death by apoptosis, (Shahinfar, S., Edward. D. P. and Tso, M. O. (1991), A pathologic study of photoreceptor cell death in retinal photic injury. Current Eye Research, 10:47-59: Abler, A. S., Chang, C. J., Fu, J. and Tso, M. O. (1994), Photic injury triggers apoptosis of photoreceptor cells. Investigative Ophthalmology & Visual Science, 35(Suppl):1517). Oxidative stress induced apoptosis has been implicated as a cause of many ocular pathologies, including, iatrogenic retinopathy, macular degeneration, retinitis pigmentosa and other forms of heredodegenerative disease, ischemic retinopathy, retinal tears, retinal detachment, glaucoma and retinal neovascularization (Chang, C. J., Lai, W. W., Edward, D. P. and Tso, M. O. (1995), Apoptotic photoreceptor cell death after traumatic retinal detachment in humans, Archives of Ophthalmology, 113:880-886: Portera-Cailliau, C., Sung, C. H., Nathans, J. and Adler, R. (1994), Apoptotic photoreceptor cell death in mouse models of retinitis pigmentosa, Proceedings of National Academy of Science (U.S.A.), 91:974-978; Buchi, E. R. (1992), Cell death in the rat retina after a pressure-induced ischaemia-reperfusion insult: an electron microscopic study. I. Ganglion cell layer and inner nuclear layer, Experimental Eye Research, 55:605-613; Quigley, H. A., Nickells. R. W., Kerrigan, L. A., Pease, M. E., Thibault, D. J. and Zack, D. J. (1995), Retinal ganglion cell death in experimental glaucoma and after axotomy occurs by apoptosis, Investigative Ophthalmology & Visual Science, 36:774-786). […] Alan R. Liss, Inc., New York; Collier, R., W. Waldron and Zigman, S. (1989), Temporal sequence of changes to the gray squirrel retina after near-UV exposure, Investigative Ophthalmology & Visual Science, 30:631-637), non-human primates (Tso, M. O. M. (1973), Photic maculopathy in rhesus monkey. A light and electron microscopic study. Investigative Ophthalmology & Visual Science, 12:17-34; Ham, W. T., Jr., Ruffolo, J. J., Jr., Mueller, H. A. and Guerry, D., III. (1980), The nature of retinal radiation damage: dependence on wavelength, power level and exposure time, Vision Research, 20:1105-1111; Sperling, H. G., Johnson, C. and Harwerth, R. S. (1980), Differential spectral photic damage to primate cones, Vision Research, 20:1117-1125: Sykes, S. M., Robison, W. G., Jr., Waxler, M. and Kuwabara, T. (1981), Damage to the monkey retina by broad spectrum fluorescent light, Investigative Ophthalmology & Visual Science, 20:425-434; Lawwill, T. (1982), Three major pathologic processes caused by light in the primate retina: A search for mechanisms, Transactions of the American Ophthalmology Society, 80:517-577), and man (Marshall, J. Hamilton, A. M. and Bird, A. C. (1975), Histopathology of ruby and argon laser lesions in monkey and human retina, British Journal of Ophthalmology, 59:610-630; Green, W. R. and Robertson, D. M. (1991), Pathologic findings of photic retinopathy in the human eye. American Journal of Ophthalmology, 112:520-27).
# retinal laser burn = experiment: Retinal laser burn spread damage: argon laser, lesion area in outer nuclear layer after 48 hours; type: in vivo, Pigmented Long Evans rats
# Description: The eye is exposed to high-energy laser radiation during the performance of retinal photocoagulation therapy (grid, focal and […]) or during photodynamic therapy. This type of therapy is often employed during treatment of choroidal neovascularization, proliferative stages of diabetic retinopathy, retinopathy of prematurity, or to repair retinal holes or […]. Associated with this laser therapy is tissue destruction leading to vision deterioration. […] It is believed that this vision loss results directly from the expansion of the laser-induced lesion to surrounding normal neurosensory retina and RPE. Singlet oxygen and other reactive oxygen species as well as cytokines are generated in the area of the laser burn and thought to migrate laterally to cause collateral retinal damage. Retinal morphology changes in this area are similar to changes in our photo-oxidative retinopathy paradigm. […] Pigmented Long Evans rats were randomly assigned to control, vehicle or drug dosed groups. […] After a 48-hour recovery period, eyes were fixed, dehydrated, and embedded in plastic resin. Histological assessment of laser burns was performed by flatmounting the retina and sectioning the tissue in a plane tangential to the nerve fiber layer. Using this technique, the lesion area in the outer nuclear layer could be calculated using an image analysis system. […] The laser bum center was marked by; complete closure of all capillaries, arterioles and venuoles; perforation of Bruch's membrane; pyknosis and necrosis of all photoreceptor nuclei; and destruction of inner and outer segments. Spread of the lesion into peripheral retina consisted of shortening of outer segments, inner segment swelling, clumping of melanin granules in the RPE and choroid, and vacuolization of the RPE.
# NMDA receptor = experiment: Binding affinity to the NMDA receptor; conditions: order of magnitude only
# [3] = tested on: light induced functional or morphological changes; experiment: Light damage paradigms (light induced damage paradigm); conditions: in vivo
# Experimental: Eliprodil was evaluated in our light induced damage paradigm, a model of retinal degenerative diseases such as retinitis pigmentosa and age-related macular degeneration.
# [4] = tested on: mechanical stress induced ischemia reperfusion; conditions: Arch Ophthal 1993; cited from earlier work
# Chain of NR1A/NR2B subtype of the polyamine binding site of the NMDA receptor (Q13224 27-1484, other chains not shown): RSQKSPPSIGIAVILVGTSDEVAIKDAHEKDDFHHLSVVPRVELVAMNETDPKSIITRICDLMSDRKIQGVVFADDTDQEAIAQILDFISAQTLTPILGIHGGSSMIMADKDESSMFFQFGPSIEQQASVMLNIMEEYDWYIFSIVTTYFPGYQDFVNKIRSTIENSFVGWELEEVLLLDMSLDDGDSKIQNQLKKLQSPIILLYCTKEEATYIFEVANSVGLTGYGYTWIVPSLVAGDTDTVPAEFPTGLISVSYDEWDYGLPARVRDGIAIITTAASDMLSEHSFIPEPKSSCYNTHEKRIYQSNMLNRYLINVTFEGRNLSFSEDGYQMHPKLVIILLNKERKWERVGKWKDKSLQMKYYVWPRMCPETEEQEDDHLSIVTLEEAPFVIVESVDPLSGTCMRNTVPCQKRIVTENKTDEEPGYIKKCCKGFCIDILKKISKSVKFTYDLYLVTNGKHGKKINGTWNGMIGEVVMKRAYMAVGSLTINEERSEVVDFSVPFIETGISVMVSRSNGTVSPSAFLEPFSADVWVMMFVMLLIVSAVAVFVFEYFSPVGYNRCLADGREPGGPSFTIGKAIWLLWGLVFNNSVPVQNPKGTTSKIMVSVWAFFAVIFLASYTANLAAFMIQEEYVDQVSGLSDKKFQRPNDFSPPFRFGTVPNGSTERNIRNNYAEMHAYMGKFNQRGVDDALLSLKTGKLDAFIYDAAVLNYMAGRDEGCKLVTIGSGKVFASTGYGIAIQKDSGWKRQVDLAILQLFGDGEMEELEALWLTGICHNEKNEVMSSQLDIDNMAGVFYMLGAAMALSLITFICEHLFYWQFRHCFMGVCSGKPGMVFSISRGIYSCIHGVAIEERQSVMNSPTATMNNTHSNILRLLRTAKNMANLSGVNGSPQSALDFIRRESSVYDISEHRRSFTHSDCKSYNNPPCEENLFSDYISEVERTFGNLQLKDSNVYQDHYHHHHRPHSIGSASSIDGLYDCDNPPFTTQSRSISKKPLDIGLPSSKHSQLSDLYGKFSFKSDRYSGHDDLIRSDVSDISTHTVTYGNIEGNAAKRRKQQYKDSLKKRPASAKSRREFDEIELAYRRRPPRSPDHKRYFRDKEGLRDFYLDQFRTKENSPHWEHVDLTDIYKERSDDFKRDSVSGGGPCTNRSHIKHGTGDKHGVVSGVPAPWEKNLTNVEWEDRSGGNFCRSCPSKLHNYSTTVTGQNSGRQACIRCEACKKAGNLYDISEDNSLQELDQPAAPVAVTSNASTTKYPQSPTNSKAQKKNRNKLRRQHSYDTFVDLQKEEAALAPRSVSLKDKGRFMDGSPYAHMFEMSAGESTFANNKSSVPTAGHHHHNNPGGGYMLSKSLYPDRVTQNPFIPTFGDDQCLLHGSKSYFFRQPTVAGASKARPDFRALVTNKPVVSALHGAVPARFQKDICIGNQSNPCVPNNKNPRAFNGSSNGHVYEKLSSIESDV
molecule,measurement,setting,value
"C[C@@H]([C@@H](O)c1ccc(O)cc1)N1CCC(O)(c2ccccc2)CC1 [CP-101,606]",subtype preference of NMDA receptor block,[1],preferentially block
O[C@@H](CN1CCC(Cc2ccc(F)cc2)CC1)c1ccc(Cl)cc1 [R-eliprodil],potency relative to eliprodil (racemic),[2],two-fold less potent
same,"Maximum a-wave response, % of normal","[2]; ip, 20 mg/kg",38%
same,"Maximum b-wave response, % of normal","[2]; ip, 20 mg/kg",36%
same,protection of outer and inner retina function against light induced retinal degeneration,"[2]; ip, 20 mg/kg",No significant protection
same,"Response amplitudes, fold higher than vehicle dosed rats","[2]; ip, 40 mg/kg",about 2 fold
same,maximum a-wave response amplitude,"[2]; ip, 40 mg/kg",397.25 μV
same,maximum b-wave response amplitude,"[2]; ip, 40 mg/kg",812.87 μV
same,protection of outer and inner retina function against light induced retinal degeneration,"[2]; ip, 40 mg/kg",significant protection
same,"response amplitudes, % of normal","[2]; ip, 40 mg/kg",~50%
same,"Maximum a- and b-wave responses, % of normal","[2]; ip, 80 mg/kg",approximately 40%
same,protection of outer and inner retina function against light induced retinal degeneration,"[2]; ip, 80 mg/kg",No significant retinal protection
same,lesion area smaller than in vehicle dosed rats,retinal laser burn; 20 mg/kg IP,16%
same,significance of lesion area difference from vehicle,retinal laser burn; 20 mg/kg IP,not significantly different
same,Laser burn lesion area,retinal laser burn; 40 mg/kg IP,"36,016 μ^2"
same,lesion area smaller than in vehicle dosed rats,retinal laser burn; 40 mg/kg IP,28%
same,significance of lesion area difference from vehicle,retinal laser burn; 40 mg/kg IP,significantly diflerent
same,reduction of collateral retinal damage around the laser burn (summary),retinal laser burn,significant reduction
same,binding affinity to the NMDA receptor,NMDA receptor,nanomolar
O[C@H](CN1CCC(Cc2ccc(F)cc2)CC1)c1ccc(Cl)cc1 [S-eliprodil],potency rank as retinoprotective agent in the series,[2],most potent
same,potency relative to eliprodil (racemic),[2],two-fold more potent
same,difference in ERG response amplitude compared to vehicle dosed rats,"[2]; ip, 5 mg/kg",No significant difference
same,"Maximum a-wave response, % of normal","[2]; ip, 10 mg/kg",64%
same,"Maximum b-wave response, % of normal","[2]; ip, 10 mg/kg",76%
same,protection of outer and inner retina function against light induced retinal degeneration,"[2]; ip, 10 mg/kg",Significant protection
same,"Response amplitudes, fold higher than vehicle dosed rats","[2]; ip, 20 mg/kg",about 2 fold
same,maximum a-wave response amplitude,"[2]; ip, 20 mg/kg",418.04 μV
same,maximum b-wave response amplitude,"[2]; ip, 20 mg/kg",1015.95 μV
same,protection of outer and inner retina function against light induced retinal degeneration,"[2]; ip, 20 mg/kg",Significant protection
same,"response amplitudes, % of normal","[2]; ip, 20 mg/kg",approximately 62%
same,Laser burn lesion area,retinal laser burn; 20 mg/kg IP,"43,098.5 μ^2"
same,lesion area smaller than in vehicle dosed rats,retinal laser burn; 20 mg/kg IP,15%
same,significance of lesion area difference from vehicle,retinal laser burn; 20 mg/kg IP,not significantly different
same,reduction of collateral retinal damage around the laser burn (summary),retinal laser burn,devoid of significant efficacy
same,binding affinity to the NMDA receptor,NMDA receptor,millimolar
Cc1c(C)c2c(c(C)c1O)CC[C@@](C)(CCC[C@H](C)CCC[C@H](C)CCCC(C)C)O2 [alpha-tocopherol],preventing light induced functional or morphological changes,[3],ineffective
N=C(N)NC(=O)c1nc(Cl)c(N)nc1N [amiloride],preventing light induced functional or morphological changes,[3],no effect
COC(=O)C1=C(C)NC(C)=C(C(=O)O[C@H]2CCN(Cc3ccccc3)C2)[C@H]1c1cccc([N+](=O)[O-])c1 [barnidipine],preventing light induced functional or morphological changes,[3],no effect
COc1ccc2c(c1)[C@]13CCCC[C@@H]1[C@H](C2)N(C)CC3 [dextromethorphan],protection of inner retina function and RPE function,[4],moderately protected
same,protective effect for outer retina function,[4],no significant protective effect
Fc1ccc(C(c2ccc(F)cc2)N2CCN(C/C=C/c3ccccc3)CC2)cc1 [flunarizine],preventing light induced functional or morphological changes,[3],moderately effective
CC(C(O)c1ccc(O)cc1)N1CCC(Cc2ccccc2)CC1 (stereo not shown) [ifenprodil],subtype preference of NMDA receptor block,[1],preferentially block
Cc1cccc(C)c1NC(=O)CN1CCN(CCCC(c2ccc(F)cc2)c2ccc(F)cc2)CC1 [lidoflazine],preventing light induced functional or morphological changes,[3],no effect
"CC12CC3CC(C)(C1)CC(N)(C3)C2 [memantine, reference compound]",dose dependence of protection of outer and inner retina function,[2],dose-dependent protection
same,protection of outer and inner retina function against light induced retinal degeneration,"[2]; ip, 2 mg/kg",no significant protection
same,ERG responses compared with control (normal),"[2]; ip, 20 mg/kg",significantly lower than normal
same,protection of outer and inner retina function against light induced retinal degeneration,"[2]; ip, 20 mg/kg",significant protection
COCCOC(=O)C1=C(C)NC(C)=C(C(=O)OC(C)C)C1c1cccc([N+](=O)[O-])c1 (stereo not shown) [nimodipine],preventing light induced functional or morphological changes,[3],no effect
prenylamine lactate,preventing light induced functional or morphological changes,[3],no effect
